Measurements reported in patent US12171755B2, “PAPD5 inhibitors and methods of use thereof” (Children's Medical Center Corporation, priority 2017, dated 2024).

Target: T1, PAPD5 (Homo sapiens, UniProt Q8NDF8)
T1 construct: made in house
Assay: High-throughput luminescence (KinaseGlo) RNA polyadenylation assay, ATP utilization by recombinant PAPD5
Assay type: biochemical
Details: Table 4 (entries of Table 5), ratio of luminescence with inhibitor to DMSO; for Fold-change determined at compound concentration 10 μM: 10 μM compound; for Fold-change determined at compound concentration 33 μM: 33 μM compound; for Fold-change determined at compound concentration 100 μM: 100 μM compound, higher = higher inhibition
In short: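 Values are ratios of inhibitor to DMSO luminescence, so larger numbers mean less ATP consumed. Screening was run in duplicate with a 2 h room-temperature reaction of recombinant PAPD5, ATP and oligo RNA substrate plus compound. Residual ATP was detected after a 10 min KinaseGlo step.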

T1 sequence (Q8NDF8 68-698 isoform Q8NDF8-5): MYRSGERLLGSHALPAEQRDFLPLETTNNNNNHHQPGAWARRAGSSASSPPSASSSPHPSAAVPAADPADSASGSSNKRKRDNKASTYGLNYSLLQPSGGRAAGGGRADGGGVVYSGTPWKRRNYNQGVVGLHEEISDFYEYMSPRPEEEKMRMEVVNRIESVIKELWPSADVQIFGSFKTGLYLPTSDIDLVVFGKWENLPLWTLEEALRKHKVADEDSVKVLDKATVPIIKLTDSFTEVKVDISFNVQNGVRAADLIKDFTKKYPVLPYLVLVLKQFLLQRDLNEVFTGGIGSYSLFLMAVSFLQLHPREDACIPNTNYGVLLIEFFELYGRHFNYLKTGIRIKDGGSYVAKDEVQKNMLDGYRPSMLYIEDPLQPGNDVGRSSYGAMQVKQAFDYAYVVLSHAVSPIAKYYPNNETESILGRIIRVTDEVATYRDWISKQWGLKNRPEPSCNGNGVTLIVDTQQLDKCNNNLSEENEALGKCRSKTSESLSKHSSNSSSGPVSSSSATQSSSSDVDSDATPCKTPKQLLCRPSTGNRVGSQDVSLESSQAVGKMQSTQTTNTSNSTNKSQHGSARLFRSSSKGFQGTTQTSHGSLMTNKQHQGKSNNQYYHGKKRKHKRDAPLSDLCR

## N#C/C(=C\c1ccc(-c2ccc(C(=O)O)cc2)o1)C(=O)Nc1ccccc1C(=O)O [Entry 244, 2-[[(E)-3-[5-(4-carboxyphenyl)furan-2-yl]-2-cyanoprop-2-enoyl]amino]benzoic acid]
  Fold-change determined at compound concentration 10 μM: 1.32
  Fold-change determined at compound concentration 33 μM: 1.737
  Fold-change determined at compound concentration 100 μM: 2.572

## CC(C)Cn1c(=O)c2ccccc2n2c(=S)[nH]nc12 [Entry 73, 4-isobutyl-1-thioxo-2,4-dihydro[1,2,4]triazolo[4,3-a]quinazolin-5(1H)-one]
  Fold-change determined at compound concentration 33 μM: 1.093
  Fold-change determined at compound concentration 100 μM: 1.278

## CCSc1nnc(NC(=O)c2cc(=O)c3cc(C)c(C)cc3o2)s1 [Entry 124, N-(5-ethylsulfanyl-1,3,4-thiadiazol-2-yl)-6,7-dimethyl-4-oxochromene-2-carboxamide]
  Fold-change determined at compound concentration 10 μM: 1.241
  Fold-change determined at compound concentration 33 μM: 1.437
  Fold-change determined at compound concentration 100 μM: 1.858

## COc1ccc(Cc2nccc3cc(OC)c(OC)cc23)cc1OC [Entry 237, 1-(3,4-dimethoxybenzyl)-6,7-dimethoxyisoquinoline]
  Fold-change determined at compound concentration 33 μM: 1.166
  Fold-change determined at compound concentration 100 μM: 1.362

## CCOC(=O)c1c(NC(=O)CSc2n[nH]c3nc(=O)cc(C)n23)sc2c1CCCCC2 [Entry 200, ethyl 2-[[2-[(5-methyl-7-oxo-1H-[1,2,4]triazolo[4,3-a]pyrimidin-3-yl)sulfanyl]acetyl]amino]-5,6,7,8-tetrahydro-4H-cyclohepta[b]thiophene-3-carboxylate]
  Fold-change determined at compound concentration 33 μM: 1.038
  Fold-change determined at compound concentration 100 μM: 1.414

## Cc1cc(=O)oc2cc(OCC(=O)Nc3ccc(O)c(C(=O)O)c3)ccc12 [Entry 130, 2-hydroxy-5-[[2-(4-methyl-2-oxochromen-7-yl)oxyacetyl]amino]benzoic acid]
  Fold-change determined at compound concentration 33 μM: 1.086
  Fold-change determined at compound concentration 100 μM: 1.212

## Cc1nc[nH]c1CN1CCc2c(c3ccccc3n2C)C1=O [Entry 111, 5-methyl-2-((4-methyl-1H-imidazol-5-yl)methyl)-2,3,4,5-tetrahydro-1H-pyrido[4,3-b]indol-1-one]
  Fold-change determined at compound concentration 33 μM: 1.78
  Fold-change determined at compound concentration 100 μM: 2.308

## COc1ccc(Br)cc1[C@@H]1Nc2ccc(C(=O)O)cc2[C@@H]2C=CC[C@@H]21 [Entry 99, (3aS,4R,9bR)-4-(5-bromo-2-methoxyphenyl)-3a,4,5,9b-tetrahydro-3H-cyclopenta[c]quinoline-8-carboxylic acid]
  Fold-change determined at compound concentration 33 μM: 1.233
  Fold-change determined at compound concentration 100 μM: 1.91

## Cc1ccccc1CNC(=O)Cn1cc2c(n1)-c1c(oc(C(=O)N3CCCC3)c1C)CC2 [Entry 170, N-[(2-methylphenyl)methyl]-2-[8-methyl-7-(pyrrolidine-1-carbonyl)-4,5-dihydrofuro[2,3-g]indazol-2-yl]acetamide]
  Fold-change determined at compound concentration 33 μM: 1.302
  Fold-change determined at compound concentration 100 μM: 1.816

## Cc1cc(C)c2c(=O)cc(CSc3nnc(-c4ccccc4)n3C)[nH]c2c1 [Entry 102, 5,7-dimethyl-2-[(4-methyl-5-phenyl-1,2,4-triazol-3-yl)sulfanylmethyl]-1H-quinolin-4-one]
  Fold-change determined at compound concentration 33 μM: 1.066
  Fold-change determined at compound concentration 100 μM: 1.268

## O=C(O)c1cccc(Nc2ncnc3ccc(Br)cc23)c1 [Entry 32, 3-[(6-bromoquinazolin-4-yl)amino]benzoic acid]
  Fold-change determined at compound concentration 33 μM: 1.114
  Fold-change determined at compound concentration 100 μM: 1.236

## COc1ccc(-c2[nH]nc3nc(-c4cc(Br)ccc4OC)cc(C(=O)O)c23)cc1 [Entry 179, 6-(5-bromo-2-methoxyphenyl)-3-(4-methoxyphenyl)-2H-pyrazolo[3,4-b]pyridine-4-carboxylic acid]
  Fold-change determined at compound concentration 33 μM: 1.112
  Fold-change determined at compound concentration 100 μM: 1.309

## Cc1c(C(=O)N2CCCC2)oc2c1-c1nn(CC(=O)NCCCOC(C)C)cc1CC2 [Entry 168, 2-[8-methyl-7-(pyrrolidine-1-carbonyl)-4,5-dihydrofuro[2,3-g]indazol-2-yl]-N-(3-propan-2-yloxypropyl)acetamide]
  Fold-change determined at compound concentration 33 μM: 1.452
  Fold-change determined at compound concentration 100 μM: 1.678

## COc1ccc(CNC(=O)Nc2cn(CC(C)C)c(=O)c3ccccc23)c(OC)c1 [Entry 60a, 1-[(2,4-dimethoxyphenyl)methyl]-3-[2-(2-methylpropyl)-1-oxoisoquinolin-4-yl]urea]
  Fold-change determined at compound concentration 33 μM: 1.164
  Fold-change determined at compound concentration 100 μM: 1.507

## COc1cc(Cl)c(NS(=O)(=O)c2cc3[nH]c(=O)c(=O)[nH]c3cc2C)c(OC)c1 [Entry 138, N-(2-chloro-4,6-dimethoxyphenyl)-7-methyl-2,3-dioxo-1,4-dihydroquinoxaline-6-sulfonamide]
  Fold-change determined at compound concentration 33 μM: 1.161
  Fold-change determined at compound concentration 100 μM: 1.317

## CN1C(=O)C(c2c(-c3ccc4ccccc4c3)[nH]c3[nH]c(=O)[nH]c(=O)c23)c2ccccc21 (stereo not drawn) [Entry 236, 5-(1-methyl-2-oxo-2,3-dihydro-1H-indol-3-yl)-6-(2-naphthyl)-1H-pyrrolo[2,3-d]pyrimidine-2,4(3H,7H)-dione]
  Fold-change determined at compound concentration 10 μM: 1.272
  Fold-change determined at compound concentration 33 μM: 1.39
  Fold-change determined at compound concentration 100 μM: 1.75

## CCCc1nnc(NC(=O)c2cc(=O)c3cc(C)c(C)cc3o2)s1 [Entry 127, 6,7-dimethyl-4-oxo-N-(5-propyl-1,3,4-thiadiazol-2-yl)-4H-chromene-2-carboxamide]
  Fold-change determined at compound concentration 33 μM: 1.397
  Fold-change determined at compound concentration 100 μM: 1.984

## CN(C)CCNC(=O)c1ccc(Cn2c(=O)c3cccn3c3cccnc32)cc1 [Entry 70, N-[2-(dimethylamino)ethyl]-4-[(6-oxopyrido[2,3-e]pyrrolo[1,2-a]pyrazin-5(6H)-yl)methyl]benzamide]
  Fold-change determined at compound concentration 33 μM: 1.103
  Fold-change determined at compound concentration 100 μM: 1.206

## COc1ccc(NC(=O)CCn2c(=O)c3cccn3c3ccccc32)c(OC)c1 [Entry 67, N-(2,4-dimethoxyphenyl)-3-(4-oxopyrrolo[1,2-a]quinoxalin-5-yl)propanamide]
  Fold-change determined at compound concentration 33 μM: 1.122
  Fold-change determined at compound concentration 100 μM: 1.238

## CSc1nnc(NC(=O)c2cc(=O)c3cc(C)c(C)cc3o2)s1 [Entry 125, 6,7-dimethyl-N-[5-(methylsulfanyl)-1,3,4-thiadiazol-2-yl]-4-oxo-4H-chromene-2-carboxamide]
  Fold-change determined at compound concentration 33 μM: 1.147
  Fold-change determined at compound concentration 100 μM: 1.444

## O=C(O)C1CCCN(c2ncnc3c2oc2ccccc23)C1 (stereo not drawn) [Entry 35, 1-[1]benzofuro[3,2-d]pyrimidin-4-ylpiperidine-3-carboxylic acid]
  Fold-change determined at compound concentration 33 μM: 1.04
  Fold-change determined at compound concentration 100 μM: 1.287

## O=C(O)c1cc(-c2ccc(C(F)(F)F)cc2)nc2n[nH]c(-c3ccccc3)c12 [Entry 182, 3-phenyl-6-[4-(trifluoromethyl)phenyl]-2H-pyrazolo[3,4-b]pyridine-4-carboxylic acid]
  Fold-change determined at compound concentration 33 μM: 1.1781
  Fold-change determined at compound concentration 100 μM: 1.35

## Cc1cc2[nH]c(=O)c(=O)[nH]c2cc1S(=O)(=O)Nc1ccc(OC(F)(F)F)cc1 [Entry 137, 7-methyl-2,3-dioxo-N-[4-(trifluoromethoxy)phenyl]-1,4-dihydroquinoxaline-6-sulfonamide]
  Fold-change determined at compound concentration 33 μM: 1.12
  Fold-change determined at compound concentration 100 μM: 1.301

## CCOC(=O)c1c[nH]c2nc(NCc3cccc(Br)c3)nn2c1=O [Entry 156, ethyl 2-[(3-bromophenyl)methylamino]-7-oxo-1H-[1,2,4]triazolo[1,5-a]pyrimidine-6-carboxylate]
  Fold-change determined at compound concentration 33 μM: 1.212
  Fold-change determined at compound concentration 100 μM: 1.516

## CCc1cc(=O)n2nc(NCc3ccccc3C)nc2[nH]1 [Entry 143, 5-ethyl-2-[(2-methylbenzyl)amino][1,2,4]triazolo[1,5-a]pyrimidin-7(4H)-one]
  Fold-change determined at compound concentration 33 μM: 1.116
  Fold-change determined at compound concentration 100 μM: 1.255

## COc1ccc(NS(=O)(=O)c2ccc3c(c2)[C@H]2C=CC[C@H]2[C@@H](c2ccc(C(=O)O)cc2)N3)cc1 [Entry 100, 4-[(3aR,4S,9bS)-8-[(4-methoxyphenyl)sulfamoyl]-3a,4,5,9b-tetrahydro-3H-cyclopenta[c]quinolin-4-yl]benzoic acid]
  Fold-change determined at compound concentration 33 μM: 1.315
  Fold-change determined at compound concentration 100 μM: 2.297

## Cc1cc2oc(C(=O)Nc3nnc(C(C)C)s3)cc(=O)c2cc1C [Entry 122, 6,7-dimethyl-4-oxo-N-(5-propan-2-yl-1,3,4-thiadiazol-2-yl)chromene-2-carboxamide]
  Fold-change determined at compound concentration 33 μM: 1.134
  Fold-change determined at compound concentration 100 μM: 1.377

## O=c1oc2cc(O)c(O)cc2c2c1CCCC2 [Entry 118, 2,3-dihydroxy-7,8,9,10-tetrahydro-6H-benzo[c]-chromen-6-one]
  Fold-change determined at compound concentration 33 μM: 1.195
  Fold-change determined at compound concentration 100 μM: 1.615

## COCc1c(Br)c(C)nc2sc3c(=O)n(-c4ccccc4C(=O)OC)nnc3c12 [Entry 167, methyl 2-(8-bromo-9-(methoxymethyl)-7-methyl-4-oxopyrido[3′,2′:4,5]thieno[3,2-d][1,2,3]triazin-3(4H)-yl)benzoate]
  Fold-change determined at compound concentration 33 μM: 1.413
  Fold-change determined at compound concentration 100 μM: 1.995

## COc1c2[nH]c3occc3c(OC)c-2ccc1=O [Entry 91, 4,8-dimethoxy-9H-furo[2,3-b]quinolin-7-one]
  Fold-change determined at compound concentration 33 μM: 1.197
  Fold-change determined at compound concentration 100 μM: 1.537
